Results: patent EP0535155B1, “LIBRARIES OF MODIFIED PEPTIDES WITH PROTEASE RESISTANCE” (CHIRON CORPORATION, priority 1990, dated 2002)
Where a SMILES comes first, the peptide text is derived from it. The star is where a group is joined. Fmoc = O=C(OCC1c2ccccc2-c2ccccc21)*

How the values were obtained:
[1] = tested on: trypsin; assay: Proteolysis of peptoids and peptides by trypsin (RP-HPLC); settings: trypsin (isolated protease) in Tris buffer, pH 8
Procedure: (§1) Each substrate was dissolved to 0.5 mg/mL in 10% DMSO, 100 mM Tris, 100 mM CaCl2, pH 8.0. Either trypsin or chymotrypsin was dissolved to 1 mg/mL in 0.001M HCI. At t=0, 10λ of enzyme or 0.001M HCI was added to 200λ of either the peptoid or peptide solution and incubated at 37°C. At the appropriate times, 50λ was removed and quenched with 50λ of 20% HOAc and assayed by HPLC on a C4 column with detection at 280 nm. The data below is given in percent area remaining on parent peak.

[2] = tested on: trypsin
Procedure: as §1

[3] = tested on: chymotrypsin; assay: in vitro; settings: isolated enzyme chymotrypsin, pH 8
Procedure: as §1

[4] = tested on: chymotrypsin; assay: Proteolysis of peptoids and peptides by chymotrypsin (RP-HPLC); settings: chymotrypsin (isolated protease) in Tris buffer, pH 8
Procedure: as §1

[5] = physchem; settings: buffer or solvent, pH 8
Procedure: as §1

[6] = tested on: chymotrypsin
Procedure: as §1

In the case of `CC(C)C[C@H](NC(=O)OCC1c2ccccc2-c2ccccc21)C(=O)N[C@@H](CC(=O)O)C(=O)N[C@@H](Cc1ccccc1)C(=O)N[C@@H](CO)C(=O)N[C@@H](CCCCN)C(=O)NCC(=O)O` [PEPTIDE, FMOC-LDFSKG-OH] (Fmoc-LDFSKG-OH), the remaining at 5 min, 0.476 mg/mL [1] is reported as 0%, the remaining at 10 min, 0.476 mg/mL [1] is reported as 0% and the remaining at 3 h, 0.476 mg/mL [1] is reported as 0%. The “time in which cleavage was complete” value [2] was no more than 5 min, the metabolised at 10 min, 0.476 mg/mL [3] was roughly 60% and the remaining at 3 h, 0.476 mg/mL [3] was 0%. The remaining at 5 min, 0.476 mg/mL [4] was 75%, the remaining at 10 min, 0.476 mg/mL [4] was 41% and the remaining at 5 min, 0.476 mg/mL [5] was 100%. The remaining at 10 min, 0.476 mg/mL [5] was 100%, the remaining at 3 h, 0.476 mg/mL [5] was less than 100% and the “cleavage at the second site” value [6] was “not cbmpletely cleaved”.
